This is an account of results in patent publication US20030180808A1, “Drug signatures” (priority 2002, published 2003).

Entries after “also recorded” stand apart in the source; their conditions may differ. Like-named read-outs stand apart in the source and are kept apart here.

In data set [1] the test system is 123 assays completed (panel of sites of drug action and drug toxicity). Description: Molecular pharmacology assay panel (MDS-Pharma Services catalog). The note with it: for activity in the 123 assays completed: <50% inhibition binned as 0, preliminary test at 30 μM.
For data set [2] the following is noted: hypertriglyceridemic patients; known side effect; cited from earlier work.
For data set [3] the following is noted: rats, from the literature or experience, cited from earlier work.
For data set [4], the target named is T1, estrogen receptor (Homo sapiens, UniProt P03372).
T1 sequence (P03372 1-595): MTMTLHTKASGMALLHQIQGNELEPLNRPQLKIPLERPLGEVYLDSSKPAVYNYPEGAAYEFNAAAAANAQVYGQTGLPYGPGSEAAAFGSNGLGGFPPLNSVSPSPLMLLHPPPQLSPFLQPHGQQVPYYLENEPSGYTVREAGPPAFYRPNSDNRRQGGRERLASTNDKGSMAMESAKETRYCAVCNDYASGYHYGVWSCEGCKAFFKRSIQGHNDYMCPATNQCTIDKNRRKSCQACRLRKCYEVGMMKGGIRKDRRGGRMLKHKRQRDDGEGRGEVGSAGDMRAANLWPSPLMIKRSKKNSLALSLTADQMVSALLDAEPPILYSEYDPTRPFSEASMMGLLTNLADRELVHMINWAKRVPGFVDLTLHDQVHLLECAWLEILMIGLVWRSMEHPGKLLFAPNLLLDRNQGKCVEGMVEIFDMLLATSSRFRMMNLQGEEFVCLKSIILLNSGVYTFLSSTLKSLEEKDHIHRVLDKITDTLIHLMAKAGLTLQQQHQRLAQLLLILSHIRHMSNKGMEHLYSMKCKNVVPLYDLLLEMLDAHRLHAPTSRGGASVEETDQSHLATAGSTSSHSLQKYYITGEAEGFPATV
The note with it: read-out: EC50 stimulation of ER; cited from earlier work.

The target of data set [5] is T2, PXR receptors (Mus musculus, UniProt O54915).
T2 sequence (O54915 1-431): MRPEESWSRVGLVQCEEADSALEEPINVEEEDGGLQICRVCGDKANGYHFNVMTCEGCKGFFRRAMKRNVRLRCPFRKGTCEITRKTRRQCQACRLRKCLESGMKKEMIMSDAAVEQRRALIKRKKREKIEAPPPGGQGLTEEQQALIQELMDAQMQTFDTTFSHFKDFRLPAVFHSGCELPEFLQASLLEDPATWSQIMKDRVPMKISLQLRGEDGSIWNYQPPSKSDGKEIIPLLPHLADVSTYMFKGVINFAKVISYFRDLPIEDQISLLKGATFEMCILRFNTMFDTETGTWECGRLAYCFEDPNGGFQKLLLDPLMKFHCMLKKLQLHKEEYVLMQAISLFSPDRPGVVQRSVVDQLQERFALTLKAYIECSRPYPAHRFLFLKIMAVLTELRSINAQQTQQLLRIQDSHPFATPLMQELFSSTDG
The note with it: cited from earlier work.

The target in data set [6] is T1, estrogen receptor. Description: Molecular pharmacology panel assay: estrogen receptor.
In data set [7] the test system is site-2 sodium channel. The data set is described as follows: Molecular pharmacology panel assay: site-2 sodium channel.
Data set [8] addresses T3, PPARα (Homo sapiens, UniProt Q07869).
T3 sequence (Q07869 1-468): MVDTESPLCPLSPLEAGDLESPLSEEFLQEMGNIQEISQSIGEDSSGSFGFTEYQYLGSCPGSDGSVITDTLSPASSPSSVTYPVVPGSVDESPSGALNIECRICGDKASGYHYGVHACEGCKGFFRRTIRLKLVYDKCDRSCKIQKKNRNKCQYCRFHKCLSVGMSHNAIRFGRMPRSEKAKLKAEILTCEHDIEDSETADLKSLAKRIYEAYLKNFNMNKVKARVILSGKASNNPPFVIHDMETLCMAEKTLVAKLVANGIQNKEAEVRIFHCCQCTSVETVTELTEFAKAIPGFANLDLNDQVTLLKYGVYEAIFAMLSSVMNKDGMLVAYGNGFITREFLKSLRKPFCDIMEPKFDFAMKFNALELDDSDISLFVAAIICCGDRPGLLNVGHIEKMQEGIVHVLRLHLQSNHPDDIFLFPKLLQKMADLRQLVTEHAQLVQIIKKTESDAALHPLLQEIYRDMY
The note with it: cited from earlier work.

Consider `Cc1ccc(C)c(OCCCC(C)(C)C(=O)O)c1` [Gemfibrozil, gemfibrozil], for which the “activity in the 123 assays completed” value in data set [1] is recorded as “no activity”. For the same compound, the “effect on LDL levels” value in data set [2] is on record as “induce an increase in LDL (low density lipoprotein) levels; also recorded: induces an increase in LDL levels”. Also, the “maximum tolerated dose (MTD)” value in data set [3] (oral gavage in 1% NaCMC) is given as 300 mg/kg.

Regarding nonylphenol, the EC50 in data set [4] is about 1000 nM; in data set [5] (read-out: EC50 stimulation of PXR receptors) it was about 500 nM.

For `CC(C)OC(=O)C(C)(C)Oc1ccc(C(=O)c2ccc(Cl)cc2)cc1` [Fenofibrate], the “maximum tolerated dose (MTD)” value in data set [3] (oral gavage in 1% NaCMC) is 1,000 mg/kg. The “interaction with the estrogen receptor” value in data set [6] is listed as “interacted weakly”. Further, the “interaction with the site-2 sodium channel” value in data set [7] was “interacted weakly”.

Take `CC(C)(c1ccc(O)cc1)c1ccc(O)cc1` [BPA, bisphenol A]: in data set [5], the “activity on PXR” value was “completely inactive”. For the same compound, the “maximum tolerated dose (MTD)” value in data set [3] (subcutaneously in arrachis oil) is recorded as 150 mg/kg.

For the compound `C[C@]12CC[C@@H]3c4ccc(O)cc4CC[C@H]3[C@@H]1CC[C@@H]2O` [Estradiol], in data set [5], the “activity on PXR” value was “completely inactive”.

Take `CC(C)(C)CC(C)(C)c1ccc(O)cc1` [OP]: the “number of assays in which compound interacted” value in data set [1] (of the 123 assays conducted) came out at 16. In data set [3] (subcutaneously in arrachis oil), the “maximum tolerated dose (MTD)” value is recorded as 450 mg/kg.

For the compound `CCOC(=O)C(C)(C)Oc1ccc(Cl)cc1` [Clofibrate, clofibrate], the “activity in the 123 assays completed” value in data set [1] was “no activity”. In data set [3] (oral gavage in 1% NaCMC), the “maximum tolerated dose (MTD)” value is on record as 250 mg/kg.

Turning to `C[C@]12CC[C@@H]3c4ccc(OC(=O)c5ccccc5)cc4CC[C@H]3[C@@H]1CC[C@@H]2O` [estradiol benzoate, Estradiol benzoate], in data set [3] (subcutaneously in arrachis oil), the “maximum tolerated dose (MTD)” value is reported as 2 mg/kg.

Turning to `CCCCC(CC)COC(=O)c1ccccc1C(=O)OCC(CC)CCCC` (centres unmarked) [DEHP], the “activity in the 123 assays completed” value in data set [1] is on record as “no activity”. The EC50 in data set [4] is about 1000 nM. Besides, in data set [8], the “stimulation of PPARα” value is recorded as “potently stimulate”. For the same compound, the “maximum tolerated dose (MTD)” value in data set [3] (oral gavage in 1% NaCMC) is 1,000 mg/kg.
